Reference: US8158646B2, “Antifungal and antiparasitic indoloquinoline derivates” (Florida Agricultural and Mechanical University, priority 2006, dated 2012)
≈ marks a conversion by molar mass, not a printed value. Read-outs that look alike come from different tables or passages of the source.

Columns and labels:
[1] = tested on: Staphylococcus aureus ATCC 29213; experiment: Antimicrobial susceptibility testing, Sa; type: cell-based; details: ATCC29213
Description: (§1) Compounds were evaluated in vitro against a panel of microorganisms, including Candida albicans ATCC 90028 (Ca), C. krusei ATCC 6258 (Ck), Cryptococcus neoformans ATCC 90113 (Cn), Staphylococcus aureus ATCC 29213 (Sa), methicillin-resistant S. aureus ATCC 43300 (MRSA), Pseudomonas aeruginosa ATCC 27853 (Pa), Aspergilllus fumigatus ATCC 90906 (Aj), and Mycobacterium intracellulare ATCC 23068 (Mi) as previously reported [Guoyi, M.; Khan, S.; Jacob, M. R; Tekwani, B. L.; Li, Z.; Pasco, D. S.; Walker, L. A.; Khan, 1. A.; Antimicrob Agents Chemother, 2004, 48, 4450-4452]. All organisms were obtained from the American Type Culture Collection (Manassas, Va.). Susceptibility testing was performed using a modified version of the NCCLS methods [a) National Committee for Clinical Laboratory Standards. 2000. […] Microbial inocula were prepared after comparison of the absorbance (at 630 nm) of cell suspensions to the 0.5 McFarland standard and dilution of the suspensions in broth (Sabouraud dextrose and cation-adjusted Mueller-Hinton broth [Difco] for the fungi and bacteria, respectively, and 5% Alamar blue [BioSource international] in Middlebrook 7H9 broth with oleic acid-albumin-dextrose-catalase enrichment for M intracellulare) to afford recommended inoculum sizes. […] The plates were read at either 630 nm or excitation and emission wavelengths of 544 and 590 nm (for Mi) prior to and after incubation. […]

[2] = tested on: methicillin-resistant S. aureus ATCC 43300; experiment: Antimicrobial susceptibility testing, MRSA; type: cell-based, Staphylococcus aureus; details: read-out: IC50 MRSA
Description: (§2) Compounds were evaluated in vitro against a panel of microorganisms, including Candida albicans ATCC 90028 (Ca), C. krusei ATCC 6258 (Ck), Cryptococcus neoformans ATCC 90113 (Cn), Staphylococcus aureus ATCC 29213 (Sa), methicillin-resistant S. aureus ATCC 43300 (MRSA), Pseudomonas aeruginosa ATCC 27853 (Pa), Aspergilllus fumigatus ATCC 90906 (Aj), and Mycobacterium intracellulare ATCC 23068 (Mi) as previously reported [Guoyi, M.; Khan, S.; Jacob, M. R; Tekwani, B. L.; Li, Z.; Pasco, D. S.; Walker, L. A.; Khan, 1. A.; Antimicrob Agents Chemother, 2004, 48, 4450-4452]. All organisms were obtained from the American Type Culture Collection (Manassas, Va.). Susceptibility testing was performed using a modified version of the NCCLS methods [a) National Committee for Clinical Laboratory Standards. 2000. Methods for dilution antimicrobial susceptibility tests for bacteria that grow aerobically. M7-A5. National Committee for Clinical Laboratory Standards, Wayne, Pa. b) National Committee for Clinical Laboratory Standards, 1997, Reference method for broth dilution antifungal susceptibility testing of yeasts. Approved standard M27-A. National Committee for Clinical Laboratory Standards, Wayne, Pa. c) National Committee for Clinical Laboratory Standards. 2000. Susceptibility testing of mycobacteria, nocardia, and other aerobic actinomycetes, 2nd ed. Tentative standard M24- T2. National Committee for Clinical Laboratory Standards, Wayne, Pa.] for all organisms except for M intracellulare, for which the modified Alamar blue procedure described by Franzblau et al [1998. J Clin Microbiol, 36, 362-366] was followed. Briefly, samples (dissolved in DMSO) were serially diluted by using 0.9% saline and transferred in duplicate to 96-well microplates. Microbial inocula were prepared after comparison of the absorbance (at 630 nm) of cell suspensions to the 0.5 McFarland standard and dilution of the suspensions in broth (Sabouraud dextrose and cation-adjusted Mueller-Hinton broth [Difco] for the fungi and bacteria, respectively, and 5% Alamar blue [BioSource international] in Middlebrook 7H9 broth with oleic acid-albumin-dextrose-catalase enrichment for M intracellulare) to afford recommended inoculum sizes. Microbial inocula were added to the samples to achieve a final volume of 200 μl and final sample concentrations starting with 100 μg/ml. Growth, solvent, and medium controls were included on each test plate. The plates were read at either 630 nm or excitation and emission wavelengths of 544 and 590 nm (for Mi) prior to and after incubation. Percent growth was calculated and plotted with the concentration tested to afford the concentration that inhibits 50% of growth (IC50). […]

[3] = tested on: Pseudomonas aeruginosa ATCC 27853; experiment: Antimicrobial susceptibility testing, Pa; type: cell-based; details: ATCC27853, NA = Not active up to 20 μg/ml
Description: as §1

[4] = tested on: Cryptococcus neoformans ATCC 90113; experiment: Antifungal susceptibility testing (modified NCCLS), Cn; type: cell-based
Description: (§3) Compounds were evaluated in vitro against a panel of microorganisms, including Candida albicans ATCC 90028 (Ca), C. krusei ATCC 6258 (Ck), Cryptococcus neoformans ATCC 90113 (Cn), Staphylococcus aureus ATCC 29213 (Sa), methicillin-resistant S. aureus ATCC 43300 (MRSA), Pseudomonas aeruginosa ATCC 27853 (Pa), Aspergilllus fumigatus ATCC 90906 (Aj), and Mycobacterium intracellulare ATCC 23068 (Mi) as previously reported [Guoyi, M.; Khan, S.; Jacob, M. R; Tekwani, B. L.; Li, Z.; Pasco, D. S.; Walker, L. A.; Khan, 1. A.; Antimicrob Agents Chemother, 2004, 48, 4450-4452]. All organisms were obtained from the American Type Culture Collection (Manassas, Va.). Susceptibility testing was performed using a modified version of the NCCLS methods [a) National Committee for Clinical Laboratory Standards. 2000. Methods for dilution antimicrobial susceptibility tests for bacteria that grow aerobically. M7-A5. National Committee for Clinical Laboratory Standards, Wayne, Pa. b) National Committee for Clinical Laboratory Standards, 1997, Reference method for broth dilution antifungal susceptibility testing of yeasts. Approved standard M27-A. National Committee for Clinical Laboratory Standards, Wayne, Pa. c) National Committee for Clinical Laboratory Standards. 2000. Susceptibility testing of mycobacteria, nocardia, and other aerobic actinomycetes, 2nd ed. Tentative standard M24- T2. National Committee for Clinical Laboratory Standards, Wayne, Pa.] for all organisms except for M intracellulare, for which the modified Alamar blue procedure described by Franzblau et al [1998. J Clin Microbiol, 36, 362-366] was followed. Briefly, samples (dissolved in DMSO) were serially diluted by using 0.9% saline and transferred in duplicate to 96-well microplates. Microbial inocula were prepared after comparison of the absorbance (at 630 nm) of cell suspensions to the 0.5 McFarland standard and dilution of the suspensions in broth (Sabouraud dextrose and cation-adjusted Mueller-Hinton broth [Difco] for the fungi and bacteria, respectively, and 5% Alamar blue [BioSource international] in Middlebrook 7H9 broth with oleic acid-albumin-dextrose-catalase enrichment for M intracellulare) to afford recommended inoculum sizes. Microbial inocula were added to the samples to achieve a final volume of 200 μl and final sample concentrations starting with 100 μg/ml. Growth, solvent, and medium controls were included on each test plate. The plates were read at either 630 nm or excitation and emission wavelengths of 544 and 590 nm (for Mi) prior to and after incubation. Percent growth was calculated and plotted with the concentration tested to afford the concentration that inhibits 50% of growth (IC50). Antimalarial and cytotoxicity testing were conducted in a similar manner as previously reported [a) Muhammad, 1.; Bedir, E.; Khan, S. I.; Tekwani, B. L.; Khan, I. A.; Takamatsu, S.; Pelletier, 1.; Walker, L. A. J Nat Prod. 2004, 67, 772-7. b) Muhammad, 1.; Dunbar, D. C.; Khan, S. 1.; Tekwani, B. L.; Bedir, E.; Takamatsu, S.; Ferreira, D, Walker L A., J Nat Prod. 2003, 66, 962-7].

[5] = tested on: Plasmodium falciparum D6 Clone; experiment: Antimalarial testing, D6 clone; type: cell-based; details: for IC50: Plasmodium falciparum; for SI (D6): SI = IC50 (vero cells)/IC50 (Pf)
Description: (§4) All organisms were obtained from the American Type Culture Collection (Manassas, Va.). Susceptibility testing was performed using a modified version of the NCCLS methods [a) National Committee for Clinical Laboratory Standards. 2000. Methods for dilution antimicrobial susceptibility tests for bacteria that grow aerobically. M7-A5. […] Approved standard M27-A. National Committee for Clinical Laboratory Standards, Wayne, Pa. c) National Committee for Clinical Laboratory Standards. 2000. Susceptibility testing of mycobacteria, nocardia, and other aerobic actinomycetes, 2nd ed. Tentative standard M24- T2. […] Briefly, samples (dissolved in DMSO) were serially diluted by using 0.9% saline and transferred in duplicate to 96-well microplates. Microbial inocula were prepared after comparison of the absorbance (at 630 nm) of cell suspensions to the 0.5 McFarland standard and dilution of the suspensions in broth (Sabouraud dextrose and cation-adjusted Mueller-Hinton broth [Difco] for the fungi and bacteria, respectively, and 5% Alamar blue [BioSource international] in Middlebrook 7H9 broth with oleic acid-albumin-dextrose-catalase enrichment for M intracellulare) to afford recommended inoculum sizes. Microbial inocula were added to the samples to achieve a final volume of 200 μl and final sample concentrations starting with 100 μg/ml. Growth, solvent, and medium controls were included on each test plate. […] Antimalarial and cytotoxicity testing were conducted in a similar manner as previously reported [a) Muhammad, 1.; Bedir, E.; Khan, S. I.; Tekwani, B. L.; Khan, I. A.; Takamatsu, S.; Pelletier, 1.; Walker, L. A. J Nat Prod.

Vero cells = experiment: Cytotoxicity to mammalian cells (Vero); type: cell-based
Description: as §4

[6] = tested on: Candida albicans ATCC 90028; experiment: Antifungal susceptibility testing (modified NCCLS), Ca; type: cell-based
Description: as §3

[7] = tested on: Mycobacterium intracellulare ATCC 23068; experiment: Modified Alamar blue procedure, Mi; type: cell-based; details: ATCC23068, read-out: IC50 Mi
Description: as §2

[8] = tested on: Aspergillus fumigatus ATCC 90906; experiment: Antimicrobial susceptibility testing, Af; type: cell-based; details: ATCC90906, read-out: IC50 Af
Description: as §2

[9] = tested on: Plasmodium falciparum W2 Clone; experiment: Antimalarial testing, W2 clone; type: cell-based; details: for IC50: Plasmodium falciparum; for SI (W2): SI = IC50 (vero cells)/IC50 (Pf)
Description: as §3

C. krusei ATCC 6258 = experiment: Antimicrobial susceptibility testing, Ck; type: cell-based, Candida krusei; details: Pichia kudriavzevii, ATCC6258, read-out: IC50 Ck
Description: as §1, with “2000. Methods for dilution antimicrobial susceptibility tests for bacteria that grow aerobically. M7-A5. National Committee for Clinical Laboratory Standards, Wayne, Pa. b) National Committee for Clinical Laboratory Standards, 1997, Reference method for broth dilution antifungal susceptibility testing of yeasts. Approved standard M27-A. National Committee for Clinical Laboratory Standards, Wayne, Pa. c) National Committee for Clinical Laboratory Standards. 2000. Susceptibility testing of mycobacteria, nocardia, and other aerobic actinomycetes, 2nd ed. Tentative standard M24- T2.” for “2000.”

[10] = Methicillin-Resistant Staphylococcus aureus
[11] = D6 Clone, read-out: Plasmodium falciparum IC50 Pf (D6)
[12] = W2 Clone, NA = Not active up to 20 μg/ml, read-out: Plasmodium falciparum IC50 Pf (W2)
[13] = D6, read-out: Plasmodium falciparum IC50 Pf (D6)
[14] = Vero cells, NC = No Cytotoxicity observed up to 5 μg/ml
[15] = W2, read-out: Plasmodium falciparum IC50 Pf (W2)

Row | IC50 [1] [µg/mL] | IC50 [2, 10] [µg/mL] | IC50 [3] [µg/mL] | IC50 [5, 11] [µg/mL] | IC50 [9, 12] [µg/mL] | Structure (SMILES) | SI (D6) ([5]; D6 Clone) | Cytotoxicity (Vero) TC50 (Vero cells; African green monkey) [µg/mL] | IC50 [7] [µg/mL] | IC50 [8] [µg/mL] | SI (W2) ([9]; W2 Clone) | IC50 [5, 13] [µg/mL] | Cytotoxicity (Vero) TC50 (Vero cells; [14]) [µg/mL] | IC50 [9, 15] [µg/mL] | also measured
1 | 3 | 3 | 1.5 | 1.3 | 1 | c1ccc2c(c1)cc1[nH]c3ccccc3c1[n+]2CCCCC[n+]1c2ccccc2cc2[nH]c3ccccc3c21 [Compound 10] | >18.3 | >23.8 | 7 | 20 | >23.8 |  |  |  | IC50 ([4]; ATCC90113, NA not defined in Table 1, read-out: IC50 Cn): 1.5 µg/mL; no cytotoxicity up to (concentration) (Vero cells; African green monkey): > 23.8 µg/mL; IC50 ([6]; ATCC90028, NA not defined in Table 1, read-out: IC50 Ca): > 50 µg/mL
2 | 0.1 (≈ 0.302 µM) | 0.15 (≈ 0.453 µM) | 0.06 (≈ 0.181 µM) |  |  | O=C(O)c1cn(C2CC2)c2cc(N3CCNCC3)c(F)cc2c1=O [Ciprofloxacin, reference compound] |  |  | 0.2 (≈ 0.604 µM) |  |  |  |  |  | 
3 |  |  |  |  |  | CCN(CC)CCCC(C)Nc1ccnc2cc(Cl)ccc12 (stereo not shown) [Chloroquine, reference compound] |  |  |  |  |  | 0.017 (≈ 0.0531 µM) | >23.8 | 0.075 (≈ 0.234 µM) | 
4 |  |  |  |  |  | Cn1c2c3ccccc3nc-2cc2ccccc21 [Compound 2b, cryptolepine, reference compound] | 54 |  | 15 (≈ 64.6 µM) | > 20 | 18.5 | 0.044 (≈ 0.189 µM) | 2.4 | 0.13 (≈ 0.56 µM) | IC50 (C. krusei ATCC 6258): 4.5 µg/mL (≈ 19.4 µM); IC50 ([2]; Staphylococcus aureus): 20 µg/mL (≈ 86.1 µM)
5 |  |  |  |  |  | Cn1c2ccccc2c2c1cc1ccccc1[n+]2CCCCCc1ccccc1.[Br-] [Compound 7b] |  |  |  |  |  |  |  |  | IC50 Cn ([4]; NA not defined in Table 1): 4.3 µg/mL; IC50 Ca ([6]; NA not defined in Table 1): 4.3 µg/mL
6 |  |  |  | 0.0085 (≈ 0.0301 µM) | 0.0031 (≈ 0.011 µM) | C[C@@H]1CC[C@H]2[C@@H](C)C(=O)O[C@@H]3O[C@@]4(C)CC[C@@H]1[C@]32OO4 [Artemisinin, reference compound] |  | >23.8 |  |  |  |  |  |  | 
